These are literature values, as cited in patent US20100280059A1, “COMPOSITIONS COMPRISING AN ANTIHISTAMINE, A[…] DE[…] EXTENDED RELEASE FORMULATIONS” (Atley Pharmaceuticals, Inc., priority 2009, published 2010).

Read-outs that look alike come from different tables or passages of the source.

Assay in series [1]: not given
The source holds these as a separate data set.

Assay in series [2]: not given
This is another data set of the same source.

[3] abbreviates: single IR oral dose of 10 mg HC, 5 male human subjects.

Turning to `CN(C)CCC(c1ccc(Cl)cc1)c1ccccn1` (stereo not shown) [CPM, chlorpheniramine], under “in vivo”, the “excreted in the feces” value is “Less than 1%” and the “renal elimination as share of total excretion” value is listed as “approximately 50%”. Moreover, the “excreted in the urine” value (metabolism to monodesmethyl and didesmethyl compounds) is reported as “up to 26%”.
For orientation: Tmax means the time at which the peak concentration occurs. Turning to `COc1ccc2c3c1O[C@H]1C(=O)CC[C@H]4[C@@H](C2)N(C)CC[C@]314` [HC, hydrocodone], in series [1] (after a single oral dose), the “share of total excretion occurring in the first 24 hours” value is on record as “About 70%”. Further, in series [1] (in vivo), the “elimination half-life of the parent-compound” value is 3.8 to 4.5 h. Moreover, in series [1] (setting [3]), the Tmax result is reported as “approximately 1.3±0.3 hours” and the “mean peak serum concentration” value was 23.6 ± 5.2 ng/mL.
A word on the half-life: it is the time needed for the level to fall by half in the phase considered. Turning to `CN[C@@H](C)[C@@H](O)c1ccccc1` [PSE, pseudoephedrine], in series [2] (affected by urinary pH), the half-life was 9 to 16 h. Moreover, the Tmax in series [2] (following administration) is 1.5 to 2.4 h. Moreover, the “dose excreted unchanged in the urine” value in series [2] (within 24 hours of dosing) is reported as “up to 90%”.
